This note sets out measurements from PubChem BioAssay (NCI).

Molecules are shown by their SMILES. Several values for one entry are separate records, joined by “and”; a condition that tells them apart may be missing. Equal values may be shown once.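 Grown in 96-well plates, cells were treated for 48 hours with each compound at five concentrations. Insufficient inhibition: endpoint recorded as highest concentration tested. GI50 marks 50% less growth. TGI denotes the concentration required for complete inhibition of growth.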

Among the test systems are A498 renal; BT-549 breast; MCF7 breast; MDA-MB-231 breast; NCI/ADR-RES ovarian; OVCAR-5 ovarian; PC-3 prostate; SK-MEL-2 melanoma; SNB-75 CNS; T-47D breast.
What all share (test): NCI tumour cell line growth inhibition, 48 h

For the compound `COC12C(COC(N)=O)C3=C(C(=O)C(C)=C(N)C3=O)N1CC1C2N1C` (stereo not given), the TGI was found to be 21.2 µM in the assay on A498 renal; 28.3 µM in the assay on BT-549 breast; 22.3 µM in the assay with MCF7 breast; 115 µM in the assay with MDA-MB-231 breast; 268 µM with NCI/ADR-RES ovarian; 63.1 µM in the assay on OVCAR-5 ovarian. Also, the TGI in the assay with PC-3 prostate is 61.6 µM; with SK-MEL-2 melanoma, 31.2 µM; in the assay on SNB-75 CNS, 11.8 µM; in the assay on T-47D breast, 182 µM.
For the compound `O=C(NNc1ccccc1)C(=O)NNc1ccccc1`, the GI50 in the assay with A498 renal is greater than 100 µM; with BT-549 breast, 42.4 µM; in the assay on MCF7 breast, 5.67 µM; with MDA-MB-231 breast, 24.1 µM; in the assay with NCI/ADR-RES ovarian it was greater than 100 µM; in the assay with OVCAR-5 ovarian, greater than 100 µM. Moreover, the GI50 was greater than 100 µM in the assay with PC-3 prostate, 2.63 µM with SK-MEL-2 melanoma, 11.6 µM with SNB-75 CNS and 0.52 µM in the assay on T-47D breast. Further, the TGI in the assay on A498 renal, in the assay on BT-549 breast, in the assay with MCF7 breast, in the assay on MDA-MB-231 breast, in the assay on NCI/ADR-RES ovarian and with OVCAR-5 ovarian was greater than 100 µM in each case. Further, the TGI in the assay with PC-3 prostate, in the assay on SK-MEL-2 melanoma, with SNB-75 CNS and with T-47D breast was greater than 100 µM throughout.
As for `C[C@@]12CCC[C@@](C)(C(=O)O)C1CC[C@]13CC(=O)[C@](CO)(C1)[C@@H](O)CC32` (stereo not given in full), the GI50 in the assay on A498 renal, with BT-549 breast, in the assay with MCF7 breast, with MDA-MB-231 breast, with NCI/ADR-RES ovarian and in the assay with OVCAR-5 ovarian was greater than 100 µM throughout. In addition, the GI50 with PC-3 prostate, in the assay on SK-MEL-2 melanoma, in the assay on SNB-75 CNS and in the assay with T-47D breast was greater than 100 µM in each case. Also, the TGI with A498 renal, with BT-549 breast, in the assay on MCF7 breast, with MDA-MB-231 breast, in the assay on NCI/ADR-RES ovarian and in the assay with OVCAR-5 ovarian was greater than 100 µM each time. Moreover, the TGI in the assay on PC-3 prostate, in the assay on SK-MEL-2 melanoma, with SNB-75 CNS and in the assay with T-47D breast was greater than 100 µM each time.
As to `COc1cc2c3c(c1OC)-c1cc4c(cc1CC3(C#N)N(C(=O)c1ccccc1)CC2)OCO4` (stereo not given), the TGI was 82.3 µM in the assay with A498 renal; greater than 100 µM with BT-549 breast; greater than 100 µM with MCF7 breast; greater than 100 µM in the assay on MDA-MB-231 breast; greater than 100 µM in the assay on NCI/ADR-RES ovarian; greater than 56.2 µM in the assay with OVCAR-5 ovarian. The TGI was greater than 100 µM with PC-3 prostate, greater than 100 µM in the assay with SK-MEL-2 melanoma, 28.1 µM in the assay with SNB-75 CNS and greater than 100 µM with T-47D breast.
Turning to `C/C(=N\NC(=S)N1CCCCCC1)c1ccccn1`, the GI50 is 0.163 µM in the assay with A498 renal; 0.147 µM with MDA-MB-231 breast; less than 0.0165 µM in the assay on OVCAR-5 ovarian; 0.183 µM with PC-3 prostate; 0.0694 µM in the assay on SK-MEL-2 melanoma; 0.277 µM in the assay on SNB-75 CNS. In addition, the TGI in the assay on A498 renal is 2.59 µM and 1.57 µM; in the assay on BT-549 breast it was 1.76 µM; with MCF7 breast, 0.0245 µM; in the assay with MDA-MB-231 breast, 5.31 µM and 9.96 µM; in the assay with NCI/ADR-RES ovarian, 3.32 µM; in the assay on OVCAR-5 ovarian, 2.67 µM and 3.98 µM. Moreover, the TGI is 2.9 µM and 2.61 µM with PC-3 prostate; 0.569 µM and 1.83 µM in the assay on SK-MEL-2 melanoma; 1.18 µM and 2.54 µM in the assay with SNB-75 CNS; 8.43 µM and 7.58 µM with T-47D breast.
For the compound `CS(=O)(=O)Nc1cc(-c2ccc3ncnc(Nc4c(Cl)ccc5c4OCO5)c3c2)cnc1Cl`, the GI50 with A498 renal was less than 0.0135 µM; in the assay with BT-549 breast, 0.132 µM; in the assay on MCF7 breast, 0.0524 µM; in the assay with MDA-MB-231 breast, 0.246 µM; in the assay on NCI/ADR-RES ovarian it was 0.477 µM; in the assay on OVCAR-5 ovarian, 0.164 µM. Moreover, the figures for the GI50 with PC-3 prostate, with SK-MEL-2 melanoma and in the assay on T-47D breast were 0.178 µM, 0.232 µM and 0.0243 µM, respectively. Also, the TGI in the assay with A498 renal was found to be 0.127 µM; in the assay with BT-549 breast, 1.04 µM; in the assay on MCF7 breast it was 1.47 µM; in the assay on MDA-MB-231 breast it was 2.35 µM; with NCI/ADR-RES ovarian it was 4.19 µM; with OVCAR-5 ovarian, 2.1 µM. In addition, the TGI with PC-3 prostate is 1.77 µM; in the assay on SK-MEL-2 melanoma, 1.04 µM; with SNB-75 CNS, 0.0972 µM; with T-47D breast, 0.606 µM.
With `CC12CCC3c4ccc(O)cc4CCC3C1C/C(=N\O)C2O` (stereo not given), the TGI in the assay with A498 renal, with BT-549 breast, in the assay on MCF7 breast, with MDA-MB-231 breast, in the assay with NCI/ADR-RES ovarian and in the assay with OVCAR-5 ovarian was greater than 100 µM each time. In addition, the TGI in the assay on PC-3 prostate, with SK-MEL-2 melanoma, with SNB-75 CNS and in the assay on T-47D breast was greater than 100 µM each time.
On to `CC(C)=CCc1cc(O)cc2c1OC(C=C(C)C)C1=C2C(=O)C2=C(C1=O)S(=O)(=O)CCN2` (stereo not given), for which the GI50 in the assay with A498 renal is 9.61 µM; with BT-549 breast, 5.18 µM; with MCF7 breast it was 2.79 µM; in the assay with MDA-MB-231 breast, 2.99 µM; in the assay on NCI/ADR-RES ovarian, greater than 16.7 µM; in the assay with OVCAR-5 ovarian, 4.34 µM. The GI50 with PC-3 prostate was 5.09 µM; in the assay with SK-MEL-2 melanoma, 3.13 µM; in the assay with SNB-75 CNS, 2.6 µM; in the assay with T-47D breast, 3.57 µM. Besides, the TGI was greater than 16.7 µM with A498 renal; greater than 16.7 µM with BT-549 breast; 6.97 µM with MCF7 breast; 8.27 µM in the assay on MDA-MB-231 breast; greater than 16.7 µM with NCI/ADR-RES ovarian; 12.5 µM in the assay on OVCAR-5 ovarian. Besides, the TGI is greater than 16.7 µM in the assay on PC-3 prostate, 6.56 µM in the assay with SK-MEL-2 melanoma, 6.39 µM in the assay with SNB-75 CNS and 12.7 µM in the assay with T-47D breast.
Regarding `CN(C)c1ccc(N=Nc2ccccn2)c(O)c1`, the GI50 in the assay with A498 renal is 3.02 µM; in the assay on BT-549 breast, 0.391 µM; in the assay on MCF7 breast, 0.271 µM; with MDA-MB-231 breast, 0.446 µM; in the assay with NCI/ADR-RES ovarian it was 0.281 µM; with OVCAR-5 ovarian it was 0.992 µM. Moreover, the GI50 was 0.416 µM in the assay on PC-3 prostate, 2.79 µM in the assay with SK-MEL-2 melanoma, 0.453 µM in the assay with SNB-75 CNS and 0.419 µM in the assay on T-47D breast. In addition, the TGI in the assay on A498 renal is 19.1 µM; in the assay with BT-549 breast, greater than 100 µM; with MCF7 breast it was greater than 100 µM; in the assay with MDA-MB-231 breast, greater than 100 µM; in the assay on NCI/ADR-RES ovarian, greater than 27.6 µM; with OVCAR-5 ovarian, greater than 100 µM. Also, the TGI is greater than 100 µM with PC-3 prostate, greater than 100 µM with SK-MEL-2 melanoma, 96.9 µM in the assay on SNB-75 CNS and greater than 49.1 µM in the assay with T-47D breast.
